From paper PMC4286029 (Inflammation Research, 2014)
Counter-ions that a name gives are not always drawn.

Key:
[1] = system: rat collagen-induced arthritis model; test: Collagen-induced arthritis in rats; format: in vivo, Lewis rats; conditions: MTX 0.3 mg/kg; for effect on paw swelling / arthritis symptoms, therapeutic administration: oral once daily from day 15, JTE-052 0.1, 1, 10 mg/kg
Description: CIA was induced in rats as previously described with some modifications. Briefly, type II collagen (Collagen Research Center, Saitama, Japan) was dissolved in 0.01 M acetic acid at 2 mg/mL, and the solution was emulsified in an equal volume of Freund’s incomplete adjuvant (Difco Laboratories, Detroit, MI). Lewis rats were immunized with 1 mL of the emulsion (1 mg of type II collagen) via ten intradermal injections on the back under anesthesia. The rats were then challenged with 0.2 mL of the emulsion injected into the base of the tail on day 8 under anesthesia. The test drugs were given orally once daily from day 1 to day 21 (preventive administration) or from day 15 to day 28 (therapeutic administration). After arthritis induction, the hind paw volume was measured by a water displacement method using a plethysmometer (Muromachi Kikai Co. Ltd., Tokyo, Japan). On day 22 or day 29, the rats were euthanized, and their hind paws were excised and X-rayed or processed for histological evaluation. Radiographs of the right hindlimbs were taken using a microfocal cone-beam X-ray CT scanner (MCT-CB100MF; Hitachi Medical Corporation, Tokyo, Japan). The severity of bone destruction was scored on a 3-point scale ranging from 0 to 2 for the following five joints: second metatarsal—second intertarsal joint, third metatarsal—third intertarsal joint, talus—central intertarsal joint, calcaneus—fourth intertarsal joint, and astragalo—tibial joint. For histological analysis, the formalin-fixed left hindlimbs were sectioned and stained with hematoxylin and eosin. The histology of the tarsal joints was evaluated by assessing the following parameters defined in the preliminary examination: inflammatory cell infiltration, synovial cell hyperplasia, cartilage destruction, and bone destruction. The severity of each histological change was scored on a 5-point scale ranging from 0 to 4. (Score 0: normal; Score 1: minimal, solitary (and very small) lesion; Score 2: slight, focal (and small) lesion; Score 3: moderate, scattered lesion; and Score 4: severe, extensive lesion).
(§1) . The hind paw volume (a) and body weight (b) were measured periodically. Images of hematoxylin and eosin staining (c) and radiographs of hindlimbs (e) are shown. Histological change (d) and radiographical change (f) were scored. The results are expressed as mean ± SD. ^# p < 0.05, ^## p < 0.01, versus vehicle by the Steel test
as §1, with “SD. *p < 0.05, **p < 0.01, versus vehicle by Dunnett’s test.” for “SD.”

[2] = system: IFN-α signaling (JAK1/Tyk2), Stat1 phosphorylation in hPBMCs; test: cells; conditions: Homo sapiens, 0.25 h, read-out: IC50, IFN-α cytokine signaling (JAK1/Tyk2)
Description: (§2) hPBMCs (3 × 10^6 cells/tube) were incubated with a test compound for 30 min at 37 °C, and then treated with IL-2 (100 ng/mL), IL-6 (100 ng/mL), IL-23 (100 ng/mL), IFN-α (100 ng/mL), or GM-CSF (1 ng/mL) for an additional 15 min. To terminate the stimulation, the cells were fixed with Fixation Buffer (BD Biosciences) for 10 min at 37 °C. The fixed cells were incubated with Perm Buffer II (BD Biosciences) for 30 min on ice and then incubated with fluorochrome-labeled anti-CD3, anti-CD4, or anti-phospho-Stat antibodies for 30 min at room temperature. The cytokine-induced Stat phosphorylation was analyzed and quantified using a Cytomics FC500 (Beckman Coulter Inc., Brea, CA). In the case of IL-23 stimulation, hPBMCs were precultured with 10 μg/mL phytohemagglutinin (PHA)-M (Sigma-Aldrich Co.) for 3 days to enhance their response to IL-23.
(§3) The phosphorylation levels of Stat5 (IL-2 and GM-CSF), Stat3 (IL-6 and IL-23), or Stat1 (IFN-α) in CD3^+CD4^+ cells (IL-2, IL-23, and IFN-α) or CD3^-CD4^+ cells (IL-6 and GM-CSF) were analyzed by flow cytometry. Data are presented as percentages of mean fluorescence intensity relative to vehicle (100 %) and non-stimulated control cells (0 %). Values are mean ± SEM. Three independent experiments were performed

[3] = system: IL-2 signaling (JAK1/JAK3), Stat5 phosphorylation in hPBMCs; test: cells; conditions: Homo sapiens, 0.25 h, read-out: IC50, IL-2 cytokine signaling (JAK1/JAK3)
Description: as §2, §3

[4] = system: kinases in KinaseProfiler; test: KinaseProfiler panel as a whole (selectivity for other kinases); format: biochemical; conditions: concentration of 1,000 nM
Description: […]; The selectivity of JTE-052 for other kinases was assessed using KinaseProfiler™ (Millipore Co. Ltd.). […].

[5] = system: IL-2-induced IFN-γ production; test: IL-2-induced IFN-γ production in mice; format: in vivo, DBA/1J mice; conditions: Mus musculus, po
Description: DBA/1J mice were dosed once via oral gavage with compounds. At 1 or 6 h after compound administration, the mice were injected intraperitoneally with 2 μg of recombinant mouse IL-2 and 10 μg of biotinylated anti-mouse IFN-γ capture antibody. After 6 h, the mice were euthanized, and blood was collected. Serum IFN-γ was quantified using a Mouse IFN-γ In Vivo Capture Assay Set (BD Biosciences).
After 1 or 6 h, they were injected with IL-2 and anti-mouse IFN-γ capture antibody. At 6 h after the injection, blood samples were collected, and the serum IFN-γ levels were measured.

[6] = system: rat collagen-induced arthritis model; design: method as in PMID 15683847; conditions: cited from earlier work

CN(Cc1cnc2nc(N)nc(N)c2n1)c1ccc(C(=O)N[C@@H](CCC(=O)O)C(=O)O)cc1 [MTX, Methotrexate hydrate]
effect on hind paw swelling and joint inflammation, preventive administration ([1]; oral once daily from day 1, JTE-052 0.1, 1, 10 mg/kg): significantly inhibited these symptoms | effect on paw swelling / arthritis symptoms, therapeutic administration [1]: did not attenuate all of these symptoms | effect on paw swelling / arthritis symptoms, therapeutic administration ([1]; listed as methotrexate): ineffective

N#CC[C@H](C1CCCC1)n1cc(-c2ncnc3[nH]ccc23)cn1 [Ruxolitinib, Ruxolitinib phosphate, reference compound]
IC50 [2]: 1.1 nM | IC50 [3]: 13 nM

C[C@@H]1CCN(C(=O)CC#N)C[C@@H]1N(C)c1ncnc2[nH]ccc12 [Tofacitinib, tofacitinib citrate, reference compound]
inhibition of other kinases in KinaseProfiler [4]: did not inhibit any of the kinases | ED50 ([5]; dosed 1 h prior to IL-2 injection): 1.1 mg/kg | ED50 ([5]; dosed 6 h prior to IL-2 injection): 13 mg/kg

C=CC[C@@H]1/C=C(\C)C[C@H](C)C[C@H](OC)[C@H]2O[C@@](O)(C(=O)C(=O)N3CCCC[C@H]3C(=O)O[C@H](/C(C)=C/[C@@H]3CC[C@@H](O)[C@H](OC)C3)[C@H](C)[C@@H](O)CC1=O)[C@H](C)C[C@@H]2OC [tacrolimus]
effect in rat collagen-induced arthritis model, administration after the onset of arthritis [6]: had no inhibitory effects
